Converted amounts (≈) assume the structure as drawn. “Also recorded” adds a separate entry of the source.
Experiments:
MCF-7 (breast cancer) = test: cells; format: cell-based; conditions: for IC50: Homo sapiens, MCF7, MTT, 72 h, mean ± SD of three replicates; for IC50 / SI (selectivity index) MCF-7: isolated compounds; for SI (selectivity index) MCF-7: IC50 HUVEC / IC50 MCF-7; for antiproliferative/cytotoxic activity against MCF-7 (in words): MTT assay
Description: (§1) The human cell lines MCF-7 (breast cancer), Ca Ski (cervical cancer), and HT-29 (colon cancer) were cultured as monolayer in RPMI 1640 growth media. HUVEC (human umbilical vein endothelial cells) and PC-3 (prostate cancer) cells were cultured in DMEM. All cells were purchased from the American Tissue Culture Collection (ATCC, USA) except for human umbilical vein endothelial cells (HUVEC) which were obtained from ScienCell Research Laboratories (Carlsbad, CA). All the media were supplemented with 10% v/v foetal bovine serum (FBS), 100 μg/mL penicillin/streptomycin, and 50 μg/mL amphotericin B. The cells were cultured in a 5% CO2 incubator at 37°C.
(§2) Cell viability was investigated using 3-(4, 5-dimethylthiazol-2-yl)-2, 5-diphenyltetrazolium bromide (MTT) assay. Cells were detached from the […] tissue culture flask when it achieved 80% confluency. The detached cells were pellet by centrifugation (1,000 rpm; 5 minutes). Cells (3.0 × 10^4 cells/mL) were seeded onto a 96-well microtiter plate (Nunc). The cells were incubated at 37°C CO2 incubator for 24 h to give adherent cells. The test compounds (1–100 μg/mL) were added onto the 96-well microtiter plate containing adherent cells. The untreated cells were incubated in 10% media containing 0.5% DMSO (without addition of any test compounds/extracts). This mixture was regarded as the negative control whereas doxorubicin as the positive control. The plates were incubated for 72 h at 37°C in a 5% CO2 incubator. After 72 h, the media were removed and 100 μL of fresh medium and 20 μL of MTT (Sigma, filter sterile, 5 mg/mL) were added to each well and further incubated for 4 hours (37°C) after which the media were substituted with 150 μL DMSO. The 96-well microtiter plates were then agitated at room temperature onto an incubator shaker to dissolve the formazan crystals. The absorbance (A) of the content of the plates was measured at 540 nm using a microplate reader. The percentage of inhibition of each test sample was calculated according to the following formula: Percentage of inhibition (%) = (A control − A sample)/A control × 100%. The average of three replicates was then obtained. The IC50 for each extract was extrapolated from the graphs of the percentage inhibition versus concentration of test agents. Cytotoxicity of each test agent is expressed as IC50 value. The IC50 value is the concentration of test agents that cause 50% inhibition or cell death, averaged from the three experiments. The selectivity index (SI) was also calculated as described by using the ratio between IC50 of the extract or compounds on normal cell lines (HUVEC) and IC50 of the tested extract or compounds on cancerous cell lines. Selectivity index (SI) values equal or greater than three were considered to have a high selectivity towards cancerous cells. An SI value denotes the selectivity of the sample to the tested cell lines.

[1] = tested on: HUVEC (human umbilical vein endothelial cells); test: cells; format: cell-based; conditions: for IC50: Homo sapiens, HUVEC, isolated compounds, MTT, 72 h, normal cells; for toxicity towards normal cells HUVEC (in words): MTT assay
Description: as §1, §2

Ca Ski (cervical cancer) = test: cells; format: cell-based; conditions: for IC50: Homo sapiens, Ca-Ski, MTT, 72 h, mean ± SD of three replicates; for IC50 / SI (selectivity index) Ca Ski: isolated compounds; for SI (selectivity index) Ca Ski: IC50 HUVEC / IC50 Ca Ski
Description: as §1, §2

[2] = parameters: method as in PMID 19043244; conditions: isolated from the rhizomes of Curcuma zedoaria; cited from earlier work
HT-29 (colon cancer) = test: MTT cytotoxicity assay, HT-29; format: cell-based; conditions: for IC50: Homo sapiens, HT-29, MTT, 72 h, mean ± SD of three replicates; for IC50 / SI (selectivity index) HT-29: isolated compounds; for antiproliferative/cytotoxic activity against HT-29 (in words): MTT assay; for SI (selectivity index) HT-29: IC50 HUVEC / IC50 HT-29
Description: as §1, §2

PC-3 (prostate cancer) = test: MTT cytotoxicity assay, PC-3; format: cell-based; conditions: for IC50: Homo sapiens, MTT, 72 h, mean ± SD of three replicates; for IC50 / SI (selectivity index) PC-3: isolated compounds; for antiproliferative/cytotoxic activity against PC-3 (in words): MTT assay; for SI (selectivity index) PC-3: IC50 HUVEC / IC50 PC-3
Description: as §1, §2

MCF-7 cells [3] = test: Hoechst 33342/PI double staining, fluorescence microscopy; format: cell-based, human; conditions: 48 h, 12.5 and 25 μg/mL
Description: The morphological features of MCF-7 cells upon treatment by the test compounds also observed by double staining of Hoechst 33342/PI assay using the inverted fluorescence microscope (Leica, DM16000B). Briefly, 5 × 10^5 cells were grown overnight and treated with 12.5 and 25 μg/mL of curcumenone (3) and curcumenol (5). After treatment of cells with the test compounds for 48 hours, both floating and adherent cells were collected by centrifugation and washed once with cold PBS. Then, Hoechst 33342 solutions (10 μg/mL) were added and incubated at 37°C for 7 minutes. The cells were then stained with PI (2.5 μg/mL) and further incubated in the dark for 15 minutes. Cell suspension (100 μL) was mounted onto glass microscope slides and observed under fluorescence microscope using UV/488 dual excitation (460 nm emission of Hoechst 33342, 575 nm emission of PI). Approximately a total of 200 target cells were calculated and the morphological characteristics of the nuclei were analyzed for quantification of apoptosis and necrosis. The percentage of apoptotic, necrotic, and dead cells was determined according to the formula described by.

[4] = tested on: liver alcohol dehydrogenase; parameters: method as in PMID 23160092; conditions: cited from earlier work
[5] = parameters: method as in PMID 23160092; conditions: cited from earlier work
MCF-7 cells [6] = test: Phase contrast microscopy of treated MCF-7 cells; format: cell-based, human; conditions: 48 h; 12.5 and 25 µg/mL; inverted phase contrast microscope 400x
Description: Briefly, MCF-7 cells (5 × 10^5) were grown in a tissue culture dishes (60 mm) for overnight. Then, the cells were treated with curcumenone (3) and curcumenol (5) at a concentration of 12.5 and 25 μg/mL, respectively. After 48 hours, cells were gently rinsed with PBS. The observation of morphological changes of apoptotic MCF-7 cells after treatment with the two bioactive compounds was viewed using an inverted phase contrast microscope (Leica DMI 3000B, Germany) at 400x magnification according to the method.

[7] = parameters: method as in PMID 9871681; conditions: cited from earlier work
P450 = tested on: P450; parameters: method as in PMID 20148399; conditions: time- and NADPH-dependent inhibitions; cited from earlier work

| Structure (SMILES) | IC50 (MCF-7 (breast cancer)) | SI (selectivity index) MCF-7 (MCF-7 (breast cancer)) | IC50 [1] | toxicity towards normal cells HUVEC (in words) [1] | IC50 (Ca Ski (cervical cancer)) | SI (selectivity index) Ca Ski (Ca Ski (cervical cancer)) | IC50 (HT-29 (colon cancer)) | antiproliferative/cytotoxic activity against HT-29 (in words) (HT-29 (colon cancer)) | SI (selectivity index) HT-29 (HT-29 (colon cancer)) | IC50 (PC-3 (prostate cancer)) | antiproliferative/cytotoxic activity against PC-3 (in words) (PC-3 (prostate cancer)) | SI (selectivity index) PC-3 (PC-3 (prostate cancer)) | apoptosis induction (MCF-7 cells [3]) | antiproliferative/cytotoxic activity against MCF-7 (in words) (MCF-7 (breast cancer)) | morphological changes of MCF-7 cells (MCF-7 cells [6]) | also measured |
| --- | --- | --- | --- | --- | --- | --- | --- | --- | --- | --- | --- | --- | --- | --- | --- | --- |
| C/C1=C\CC[C@@]2(C)O[C@@H]2CC(C)(C)/C=C/C1=O [Compound 8, zerumbone epoxide] | 24.1 ± 0.1 µg/mL (≈ 103 µM) | 0.6 | 14.2 ± 1.1 µg/mL (≈ 60.6 µM) | slight toxicity | 34.5 ± 0.6 µg/mL (≈ 147 µM) | 0.4 | 13.7 ± 2.7 µg/mL (≈ 58.5 µM) | good cytotoxic effect | 1.0 | 10.8 ± 1.9 µg/mL (≈ 46.1 µM) | good cytotoxic effect | 1.3 |  |  |  | cytotoxic effects [2]: possessed cytotoxic effects |
| CC(=O)CC[C@@H]1[C@H]2CC(=C(C)C)C(=O)C[C@@]12C [Compound 3, curcumenone] | 8.3 ± 1 µg/mL (≈ 35.4 µM) | 6.0 | 50 ± 8.6 µg/mL (≈ 213 µM) | slight toxicity | > 100 µg/mL | 0.5 | 43.3 ± 6.2 µg/mL (≈ 185 µM) |  | 1.2 | 39.8 ± 4.2 µg/mL (≈ 170 µM) |  | 1.3 | induction of apoptotic death occurred | strong antiproliferative activity | cell shrinkage, loss of contact with adjacent cells, and decrease in cell numbers | effect on liver alcohol dehydrogenase activity [4]: acceleration of liver alcohol dehydrogenase activity; effect on alcohol-treated mice [5]: protective effect; toxicity towards normal cells HUVEC (in words) ([1]; listed as curcumenone): low toxicity; antiproliferative/cytotoxic activity against Ca Ski (in words) (Ca Ski (cervical cancer); MTT assay): did not show any antiproliferative activity; effect on D-galactosamine/lipopolysaccharide-induced acute liver injury [7]: effective protective effect |
| CC1=C[C@]2(O)O[C@@]3(CC2=C(C)C)[C@@H](C)CC[C@@H]13 [Compound 5, curcumenol] | 9.3 ± 0.3 µg/mL (≈ 39.7 µM) | 2.8 | 25.9 ± 1.4 µg/mL (≈ 111 µM) | low toxicity | 18.5 ± 1 µg/mL (≈ 78.9 µM) | 1.4 | 24.8 ± 2.7 µg/mL (≈ 106 µM) | moderate inhibitory activity | 1.0 | 17.3 ± 1.2 µg/mL (≈ 73.8 µM) | moderate inhibitory activity | 1.5 | induction of apoptotic death occurred; also recorded: better inducing apoptosis capacity in comparison to curcumenone (3) | strong antiproliferative activity | cell shrinkage, loss of contact with adjacent cells, and decrease in cell numbers | mechanism-based P450 inhibition (P450): not a mechanism-based inhibitor |

From paper PMC4121215, “Cytotoxic Constituents from the Rhizomes of Curcuma zedoaria” (The Scientific World Journal, 2014)
